Converted amounts (≈) assume the structure as drawn. Like-named read-outs stand apart in the source and are kept apart here.
Assays:
guinea-pig gallbladder = assay: Anti-CCK activity on guinea-pig gallbladders in vitro (contraction by CCK-8); details: for IC50: Cavia porcellus, CCK-8 10 ng/ml, in vitro
Method: ANTI-CCK ACTIVITY ON GUINEA-PIG GALLBLADDERS IN VITRO A longitudinal strip of guinea-pig gallbladder is placed in a bath for isolated organs in Krebs at a temperature of 32° C. and oxygenated continuously with an oxygen-CO2 mixture (95-[…]). The isometric contractions were detected by means of a force transducer and recorded. […] The results obtained are shown in Table 3 which gives the compounds tested and the IC50 values found which were calculated by the method of regression in a test of at least three experiments for each compound studied.

[1] = system: pancreatitis in rats induced experimentally by taurocholate; assay: Pancreatitis induced by sodium taurocolate in rats; type: in vivo; details: for ED50: Rattus norvegicus, ip, taurocholate, rats
Method: The products under examination were administered intraperitoneally (i.p.) 30 minutes before the operation and 3 hours after the operation. Six hours after the laparatomy the blood was removed from the retro-orbitory plexus after anaesthesia with ether, the animals were killed and the pancreas was removed and weighed. The activity of the serum amylase was determined by the method described above.

guinea pig gall bladders = assay: Anti-CCK-8 activity on guinea-pig gallbladders in situ (in vivo); details: Cavia porcellus, iv; CCK-8 10 ng/kg i.v.; compound i.v.; read-out: ID50, anti-CCK-8 activity in situ
Method: In order to confirm the evidence of the studies in vitro, several of the more interesting compounds were tested in vivo with the use of guinea-pig gallbladders in situ.
The method used was that described by Ljungberg (Svensk. Farm. Tidskr. 69, 351-354, 1964).
Guinea-pigs having a weight of about 400 g anaesthetised with urethane were used; the substances being tested were administered intravenously (i.v.) into the jugular vein.
The responses of the gallbladder to the substances being tested were detected by means of a force transducer and recorded by means of a microdynamometer. 10 ng/kg of CCK 8 were chosen as the optimum contracting dose. The antagonistic compounds tested were administered in increasing doses so as to enable the calculation of an ID50 value, that is the dose (in mg/kg i.v.) having a 50% inhibiting effect against contractions induced by 10 ng/kg i.v. of CCK-8.

[2] = system: pancreatitis in mice induced experimentally by cerulein; assay: Pancreatitis induced by cerulein in mice; type: in vivo; details: for ED50: Mus musculus, ip, cerulein, mice
Method: Adult male mice received six injections of cerulein (Takus) (50 mcg/kg) each hour for six hours.
The compound was administered 30 minutes before each administration of cerulein. Nine hours after the beginning of the treatment, the blood was taken from the rectro-orbitory plexus after anaesthesia with ether, the animals were killed and the pancreas removed and weighed.

in vivo = details: mouse, iv
digestive tract = assay: Antispastic activity, vegetable carbon test (speed of transit through stomach and intestine) in mice; type: in vivo; details: Mus musculus, ip, read-out: A[…] ED50 (dose which reduces the intestinal transit time of the carbon by 50%), intraperitoneally
Excerpt: The anti-spastic activity which the present compounds exert on the whole of the digestive tract is also considerable. Measured in mice with the vegetable carbon test (speed of transit through the stomach and intestine) this activity is illustrated in the following table: […]

colon of rabbits = assay: Antispastic activity in the colon of rabbits stimulated with CCK-8; type: in vivo, rabbit; parameters: Antispastic activity in colon, EXPERIMENT 1 / Antispastic activity in colon, EXPERIMENT 2: unit not given here; details: CCK 100 ng/kg
Method: The abdomen of anaesthetised rabbit is cut open to display the tranverse colon. A small balloon full of water is inserted at an established point and connected to a pressure transducer by means of a polyethylene cannula filled with H2 O.
The optimum sensitivity being fixed in relation to the physiological contractions, the products were administered through the femeral vein. Contractions were induced by the administration of 100 ng/kg of CCK.

CCCCCN(CCOCC)C(=O)C(CCC(=O)O)NC(=O)c1ccc(Cl)c(Cl)c1 (centres unmarked) [Compound 2]
IC50 (guinea-pig gallbladder): 0.1 µg/mL (≈ 0.217 µM)
50% antagonising concentration relative to that of the specific agonist (guinea-pig gallbladder; vs CCK-8 10 ng/ml): about 10 times
AMYLASE IN THE SERUM ([1]; 5 mg/kg i.p. + taurocholate): 10.6 U/ml
INHIBITION OF AMYLASE INCREASE ([1]; 5 mg/kg i.p. + taurocholate): 28.2%
INHIBITION OF WEIGHT INCREASE ([1]; 5 mg/kg i.p. + taurocholate): 44.4%
RATIO WEIGHT OF PANCREAS / ANIMAL WEIGHT ([1]; 5 mg/kg i.p. + taurocholate): 0.50%
AMYLASE IN THE SERUM ([1]; 10 mg/kg i.p. + taurocholate): 8.9 U/ml
INHIBITION OF AMYLASE INCREASE ([1]; 10 mg/kg i.p. + taurocholate): 71.8%
INHIBITION OF WEIGHT INCREASE ([1]; 10 mg/kg i.p. + taurocholate): 63.0%
RATIO WEIGHT OF PANCREAS / ANIMAL WEIGHT ([1]; 10 mg/kg i.p. + taurocholate): 0.45%
AMYLASE IN THE SERUM ([1]; 20 mg/kg i.p. + taurocholate): 7.7 U/ml
INHIBITION OF AMYLASE INCREASE ([1]; 20 mg/kg i.p. + taurocholate): 102.6%
INHIBITION OF WEIGHT INCREASE ([1]; 20 mg/kg i.p. + taurocholate): 74.1%
RATIO WEIGHT OF PANCREAS / ANIMAL WEIGHT ([1]; 20 mg/kg i.p. + taurocholate): 0.42%
ED50 ([1]; read-out: ED50, inhibition of amylase increase): 8.6 mg/kg
ED50 ([1]; read-out: ED50, inhibition of weight increase): 10.1 mg/kg
ED50 (guinea pig gall bladders): 0.1 mg/kg
AMYLASE IN THE SERUM ([2]; 5 mg/kg ip + cerulein): 54.7 U/ml
INHIBITION OF WEIGHT INCREASE ([2]; 5 mg/kg ip + cerulein): 55.2%
INHIBITION OF WEIGHT INCREASE (pancreas) ([2]; 5 mg/kg ip + cerulein): 24.5%
RATIO WEIGHT OF PANCREAS / ANIMAL WEIGHT ([2]; 5 mg/kg ip + cerulein): 0.54%
AMYLASE IN THE SERUM ([2]; 7.5 mg/kg ip + cerulein): 21.7 U/ml
INHIBITION OF WEIGHT INCREASE ([2]; 7.5 mg/kg ip + cerulein): 88.3%
INHIBITION OF WEIGHT INCREASE (pancreas) ([2]; 7.5 mg/kg ip + cerulein): 61.2%
RATIO WEIGHT OF PANCREAS / ANIMAL WEIGHT ([2]; 7.5 mg/kg ip + cerulein): 0.45%
AMYLASE IN THE SERUM ([2]; 10 mg/kg ip + cerulein): 11.8 U/ml
INHIBITION OF WEIGHT INCREASE ([2]; 10 mg/kg ip + cerulein): 98.3%
INHIBITION OF WEIGHT INCREASE (pancreas) ([2]; 10 mg/kg ip + cerulein): 89.8%
RATIO WEIGHT OF PANCREAS / ANIMAL WEIGHT ([2]; 10 mg/kg ip + cerulein): 0.38%
ED50 ([2]; read-out: ED50 (inhibition of weight increase)): 4.6 mg/kg
ED50 ([2]; read-out: ED50, inhibition of weight increase of the pancreas): 6.3 mg/kg
LD50 (in vivo): 338 mg/kg
selectivity ratio (in vivo): 3380
ED50 (digestive tract): 14 mg/kg
Antispastic activity in colon, EXPERIMENT 1 (colon of rabbits; 0.3 mg/kg i.v.): -9.8
Antispastic activity in colon, EXPERIMENT 2 (colon of rabbits; 0.3 mg/kg i.v.): -27.2
Antispastic activity in colon, EXPERIMENT 1 (colon of rabbits; 1 mg/kg i.v.): -45.1
Antispastic activity in colon, EXPERIMENT 2 (colon of rabbits; 1 mg/kg i.v.): -39.8
Antispastic activity in colon, EXPERIMENT 1 (colon of rabbits; 3 mg/kg i.v.): -88.0
Antispastic activity in colon, EXPERIMENT 2 (colon of rabbits; 3 mg/kg i.v.): -92.4
ED50 (colon of rabbits; Oryctolagus cuniculus, iv): 1.47 mg/kg

CCCCCN(CCCOCC)C(=O)C(CCC(=O)O)NC(=O)c1ccc(Cl)c(Cl)c1 (centres unmarked) [Compound 3]
IC50 (guinea-pig gallbladder): 0.6 µg/mL (≈ 1.26 µM)
ED50 (guinea pig gall bladders): 0.75 mg/kg
LD50 (in vivo): 298 mg/kg
selectivity ratio (in vivo): 397
ED50 (digestive tract): 25 mg/kg

CCCCCN(CCCOC(C)C)C(=O)C(CCC(=O)O)NC(=O)c1ccc(Cl)c(Cl)c1 (centres unmarked) [Compound 4]
IC50 (guinea-pig gallbladder): 3 µg/mL (≈ 6.13 µM)
ED50 (guinea pig gall bladders): 5.08 mg/kg

CCCCCN(CCOC)C(=O)C(CCC(=O)O)NC(=O)c1ccc(Cl)c(Cl)c1 (centres unmarked) [Compound 5]
IC50 (guinea-pig gallbladder): 0.8 µg/mL (≈ 1.79 µM)
ED50 (guinea pig gall bladders): 0.68 mg/kg
LD50 (in vivo): 485 mg/kg
selectivity ratio (in vivo): 713
ED50 (digestive tract): 20.8 mg/kg

CCCCCN(CCCO)C(=O)C(CCC(=O)O)NC(=O)c1ccc(Cl)c(Cl)c1 (centres unmarked) [Compound 6]
IC50 (guinea-pig gallbladder): 0.3 µg/mL (≈ 0.671 µM)
ED50 (guinea pig gall bladders): 8.4 mg/kg

CCCCCN(CCCOC)C(=O)C(CCC(=O)O)NC(=O)c1ccc(C)c(C)c1 (centres unmarked) [Compound 7]
IC50 (guinea-pig gallbladder): 0.9 µg/mL (≈ 2.14 µM)
ED50 (guinea pig gall bladders): 0.65 mg/kg
LD50 (in vivo): 440 mg/kg
selectivity ratio (in vivo): 677
ED50 (digestive tract): 33.9 mg/kg

CCCCCN(CCOCC)C(=O)C(CCC(=O)O)NC(=O)c1ccc(C)c(C)c1 (centres unmarked) [Compound 8]
IC50 (guinea-pig gallbladder): 1.1 µg/mL (≈ 2.62 µM)
ED50 (guinea pig gall bladders): 2.02 mg/kg

CCCCCN(CCCOC)C(=O)C(CCC(=O)O)NC(=O)c1ccc(C)cc1 (centres unmarked) [Compound 9]
IC50 (guinea-pig gallbladder): 4 µg/mL (≈ 9.84 µM)
ED50 (guinea pig gall bladders): 3.85 mg/kg

CCCCCN(CCCOC)C(=O)C(CCC(=O)O)NC(=O)c1cccc(C)c1 (centres unmarked) [Compound 10]
IC50 (guinea-pig gallbladder): 4.1 µg/mL (≈ 10.1 µM)
ED50 (guinea pig gall bladders): 3.66 mg/kg

CCCCCN(CCCOC)C(=O)C(CCC(=O)O)NC(=O)c1ccc(Cl)cc1 (centres unmarked) [Compound 11]
IC50 (guinea-pig gallbladder): 2.6 µg/mL (≈ 6.09 µM)
ED50 (guinea pig gall bladders): 3.25 mg/kg

From patent US4769389A, “Oxygenated-alkyl derivatives of glutamic and aspartic acids with antagonistic activity to bio-active polypeptides and a method for their preparation” (priority 1985, dated 1988)
